# Values of other authors, collected in patent US20080103124A1, “Cefdinir-containing pharmaceutical composition” (ASTELLAS PHARMA INC., priority 2006, published 2008).
# Like-named read-outs stand apart in the source and are kept apart here.
# Settings: human beings
smiles,measurement,setting,value
C=CC1=C(C(=O)O)N2C(=O)[C@@H](NC(=O)/C(=N\O)c3csc(N)n3)[C@H]2SC1 [cefdinir],absolute bioavailability,following administration of a 300 mg capsule,21%
same,absolute bioavailability,following administration of an oral suspension of 250 mg/5 mL,25%
